Data reported in the NIST ThermoML archive (doi:10.1016/j.jct.2012.11.011).

Experiment: xn = mol fraction of the nth substance listed
Conditions: Liquid, Vibrating tube method

CCCCCCCCCC [decane] + COC(=O)OC
mass density [kg/m3]
Conditions	x2 = 0.0438	x2 = 0.11	x2 = 0.2348	x2 = 0.3516	x2 = 0.3944	x2 = 0.557	x2 = 0.8035	x2 = 0.95
288.15 K, 100 kPa	739	749	769.2	792	801.9	844.5	944.4	1034.2
288.15 K, 5000 kPa	742.7	753.6	773.1	796	805.9	848.7	948.8	1038.5
288.15 K, 10000 kPa	746.2	757.2	776.8	799.9	809.8	852.6	953.1	1042.8
288.15 K, 20000 kPa	752.7	763.9	783.7	807	817	858.8	963.1	1050.8
288.15 K, 30000 kPa	758.8	769.8	790	813.4	823.5	865	971.2	1058.2
288.15 K, 40000 kPa	764.3	775.8	796.1	819.7	829.3	872.6	977.8	1065.3
298.15 K, 100 kPa	731.3	741.9	760.8	783.2	793.3	831.4	932.1	1021.4
298.15 K, 5000 kPa	735.6	746.2	765.5	787.9	798	836.7	937.6	1026.5
298.15 K, 10000 kPa	739	749.7	769	791.4	801.8	840.5	942.1	1030.7
298.15 K, 20000 kPa	745.9	756.6	776.2	799	809.4	848.3	951.1	1039
298.15 K, 30000 kPa	752.2	763.1	782.9	805.9	816.6	856.1	959.2	1047
298.15 K, 40000 kPa	758.1	769	789	812.2	823	863.2	966.8	1054.4
308.15 K, 100 kPa	723.6	733.9	752.5	774.3	783.8	820.2	920.7	1008.8
308.15 K, 5000 kPa	727.7	738.2	756.9	778.9	788.5	825.6	926.3	1013.8
308.15 K, 10000 kPa	731.7	742.2	761	783.2	792.8	830.8	931.6	1018.5
308.15 K, 20000 kPa	739	749.7	768.6	790.9	801.1	840	941.1	1027.6
308.15 K, 30000 kPa	745.6	756.4	775.6	798.3	808.4	848.4	949.7	1035.9
308.15 K, 40000 kPa	751.8	762.6	782.1	804.9	815.3	856.1	957.8	1043.7
